Calls of active or inactive are those of the source. No cut-off for these calls is given here.
Test: Inhibition of tubulin polymerization

Row | inhibition | IC50 [µM] | Structure (SMILES)
1 | inactive |  | CCCCCc1c(C)c(O)cc(O)c1Oc1cc(OC)cc2c1C(=O)OC2CCCC (stereo not drawn)
2 | inactive |  | CCCCCc1cc(O)cc(O)c1Oc1cc(OC)cc2c1C(=O)OC2(O)CCCC (stereo not drawn)
3 |  | 100 | CCCCCc1c2c(cc(O)c1C(=O)O)OC(=O)c1c(cc(OC)cc1C(=O)CCCC)O2 [LOBARIC ACID]

Source: ChEMBL document CHEMBL1158446, “Antimitotic activity of lobaric acid and a new benzofuran, sakisacaulon A from Stereocaulon sasakii” (Bioorg Med Chem Lett, 2009)
